From PMC12250129, “Exploring the Therapeutic Potential of ^177Lu-PSMA-617 in a Mouse Model of Prostate Cancer Bone Metastases” (International Journal of Molecular Sciences, 2025)

Columns and labels:
[1] = tested on: bone metastases of LNCaP-luc prostate cancer; assay: Biodistribution in mice with bone metastases of LNCaP-luc prostate cancer (gamma counter); type: in vivo, mouse
Method: An in vivo imaging system was used for bioluminescence imaging (BLI) to visualize ASID mice with bone metastases of LNCaP-luc prostate cancer before the administration of ^177Lu-PSMA-617 (Figure 4A). Subsequently, ^177Lu-PSMA-617 (~37 MBq of Lu-177) was administered intravenously to mice with bone metastases, and NanoSPECT/CT imaging was performed at 4, 24, and 48 h post-administration (Figure 4B). Additionally, the mice were sacrificed, and their organs and tissues were extracted for quantitative analysis using a gamma counter at 1, 4, 24, and 48 h after injection (Figure 4C).
LNCaP-luc cells were harvested from culture and resuspended to 2 × 10^7 cells/mL in PBS. The cells were combined with an equal volume of Matrigel (BD Biosciences, Bedford, MA, USA) such that 5 × 10^5 cells were prepared for injection into the right tibia of anesthetized (inhaled anesthetic of 1–2% isoflurane) ASID mice. Intratibial injections were performed using a 29-gauge, 0.5-inch needle inserted through the tibial plateau of the flexed knee as described previously. The tumor was imaged, detected, and measured using a Bruker Small Animal Optical Imaging System (In Vivo Xtreme; Billerica, MA, USA). Mice were anesthetized with a mixture of oxygen and isoflurane, then intraperitoneally injected with 100 μL of D-luciferin (Xenogen; 30 mg/mL in PBS).
Mice received an intravenous injection of ^177Lu-PSMA-617 (equivalent to 37 MBq of ^177Lu) at 45 days after tumor implantation. The NanoSPECT/CT (Mediso Medical Imaging Systems, Arlington, VA, USA) was used to image in vivo. After the administration of ^177Lu-PSMA-617, mice inhaled an anesthetic containing 1–2% isoflurane during imaging acquisition. SPECT and X-ray CT images were obtained at 1, 4, 24, and 48 h after injection. NanoSPECT imaging was acquired using nine multipinhole gamma detectors and high-resolution collimators. The energy window was set to […] ± 10%; the image size was set to 256 × 256, and the field of view of 60 mm × 100 mm was used. Mice received an intravenous injection of ^177Lu-PSMA-617 (equivalent to 37 MBq of ^177Lu) at 45 days after tumor implantation. The distribution of ^177Lu-PSMA-617 in the mice bearing tumors was evaluated by a gamma counter (PerkinElmer, Waltham, MA, USA). The mice were sacrificed by carbon dioxide euthanasia at 1, 4, 24, and 48 h after administration. The blood, tumor, and normal organ/tissue were collected, and the uptake of radioactivity was measured by a gamma counter. The distribution data obtained using radioactivity count methods are plotted as %ID/g.

[2] = design: method as in PMID 25573634; details: over 96 h; cited from earlier work
[3] = Absorbed radiation dose calculations (OLINDA/EXM), extrapolated from mouse data; design: species or system human; details: 70 kg male adult
Method: Radiation doses (mGy/GBq) for major human organs (male) were calculated using the OLINDA/EXM Version 1.1 software. The organ-specific radiation absorbed doses following the administration of ^177Lu-PSMA-617 to humans were estimated based on residence times derived from mouse data and are presented in Table 1. […] The overall effective dose was 0.127 mSv/MBq. These findings provide critical insights into the dosimetry profile of ^177Lu-PSMA-617, aiding in the assessment of its safety and therapeutic potential.
The absorbed radiation dose calculations were performed as previously reported. For the estimation of mean absorbed doses in humans, the relative organ mass scaling method was used. The calculated mean value of the percentage injected activity per gram of tissue (%IA/g) for the organs in mice was extrapolated to the uptake amount in the organs of a 70 kg adult using the following formula:[(%IA/gorgan)animal × (kgTB weight)animal] × (gorgan/kgTB weight)human = (%IA/organ)human
The extrapolated values (%IA) in human organs at 1, 4, 24, and 48 h were fitted with exponential biokinetic models and integrated to obtain the number of disintegrations in the source organs; this information was entered into the OLINDA/EXM computer program. The integrals (MBq-s) for 11 organs, including heart contents (blood), the heart, the liver, the spleen, the lung, the kidney, muscle, the brain, bone, the small intestine, and the remainder of the body, were evaluated and used for the dosimetry evaluation.

O=C([O-])CN1CCN(CC(=O)[O-])CCN(CC(=O)NCC2CCC(C(=O)N[C@@H](Cc3ccc4ccccc4c3)C(=O)NCCCC[C@H](NC(=O)N[C@@H](CCC(=O)O)C(=O)O)C(=O)O)CC2)CCN(CC(=O)[O-])CC1.[177Lu+3] (stereo partly shown) [^177Lu-PSMA-617]
tumor-to-blood ratio ([1]; 1 h post-injection): 69.5
tumor-to-kidney ratio ([1]; 1 h post-injection): 0.3
tumor-to-muscle ratio ([1]; 1 h post-injection): 60.2
uptake in kidneys ([1]; 1 h post-injection, i.v., ~37 MBq): 43.83 ± 3.41 %IA/g
uptake in LNCaP tumors ([1]; 4 h post-injection, i.v., ~37 MBq): 23.31 ± 0.94 %IA/g
tumor-to-blood ratio ([1]; 24 h post-injection (maximum)): 434.4
tumor-to-muscle ratio ([1]; 24 h post-injection (peak)): 857.4
uptake in LNCaP tumors ([1]; 24 h post-injection, i.v., ~37 MBq): 12.88 ± 0.55 %IA/g
tumor-to-kidney ratio ([1]; 48 h post-injection (maximum)): 26.3
uptake in liver, lungs and spleen ([1]; i.v., ~37 MBq): low uptake
urinary clearance ([1]; within 24 h): > 90%
stability in human serum [2]: > 95%
Estimated Dose ([3]; Adrenals): 8.15E−04 mSv/MBq
Estimated Dose ([3]; Brain): 3.54E−05 mSv/MBq
Estimated Dose ([3]; Breasts): 7.86E−03 mSv/MBq
Estimated Dose ([3]; Kidneys): 2.19E−04 mSv/MBq
Estimated Dose ([3]; LLI Wall): 2.01E−02 mSv/MBq
Estimated Dose ([3]; Liver): 5.81E−04 mSv/MBq
Estimated Dose ([3]; Lungs): 1.47E−03 mSv/MBq
Estimated Dose ([3]; Muscle): 6.33E−05 mSv/MBq
Estimated Dose ([3]; Osteogenic Cells): 4.98E−03 mSv/MBq
Estimated Dose ([3]; Pancreas): 8.27E−04 mSv/MBq
Estimated Dose ([3]; Red Marrow): 1.47E−02 mSv/MBq
Estimated Dose ([3]; Skin): 1.54E−03 mSv/MBq
Estimated Dose ([3]; Small Intestine): 8.52E−04 mSv/MBq
Estimated Dose ([3]; Spleen): 6.92E−05 mSv/MBq
Estimated Dose ([3]; Stomach Wall): 1.98E−02 mSv/MBq
Estimated Dose ([3]; Testes): 2.16E−02 mSv/MBq
Estimated Dose ([3]; Thymus): 8.01E−04 mSv/MBq
Estimated Dose ([3]; Thyroid): 8.08E−03 mSv/MBq
Estimated Dose ([3]; ULI Wall): 8.45E−04 mSv/MBq
Estimated Dose ([3]; Urinary Bladder Wall): 8.32E−03 mSv/MBq
Estimated Dose ([3]; Uterus): 8.48E−04 mSv/MBq
Effective Dose ([3]; overall effective dose): 1.27E−01 mSv/MBq
